{"source": "patent US7786077B2", "about": "“Insulins combinations” (priority 2005, dated 2010)", "test_system": "Streptozotocin-injected male Wistar rats", "experiment": "Glycemia over 24 days in streptozotocin (60 mg/kg) rats given betaine in drinking water (Example 4)", "assay_type": "in vivo, rat", "settings": "200 mg/kg/day in drinking water, STZ 60 mg/kg rats, FIG. 4", "experimental": "Male Wistar rats (+250 g) after 1 week stabulation are injected Streptozotocin 60 mg/kg intraperitoneally. Animals (n=8/group) were fed with normal chow and water ad libitum during 5 days, then at day 1 (T0) Betaine (200 mg/kg/day) or placebo were dissolved and administrated daily in drinking water during 24 days; full access to normal chow was maintained during the whole experiments. Glycemia was measured morning at days of experiments, in non-fastened rats (as in previous exp.). At T0+7 days the treatments were inverted between the 2 groups."}
{"smiles": "C[N+](C)(C)CC(=O)O", "note": "[glycine betaine]", "values": [{"measurement": "effect on the regulation of blood glucose", "result": "per se possesses an effect on the regulation of blood glucose"}]}
